Experimental data: patent US6864356B2, “Sixteen amino acid of the antineoplastic protein (ANUP) as a pharmacologically active anti-tumor agent” (priority 1997, dated 2005)
Non-standard residues stand in square brackets, D forms with d. No end group written: not given here. pGlu = O=C1CC[C@@H](C(=O)O)N1

How the values were obtained:
tumor cells = conditions: electron microscopy (Struve et al. 1990); cited from earlier work
[1] = test system: human breast tumor cell line (MDA 231); test: in vitro antitumor (tumor killing) assay, neutral red dye, 96 well plates; assay type: cell-based; conditions: MDA 231 cells
Method: The antitumor activity of the peptide (P16) was assayed against the human breast tumor cell line (MDA 231) and its activity was compared to the in vitro antitumor effect of the “pure” protein (ANUP).
The assay for the pharmacological antitumor activities were performed as follows utilizing 96 well plates—
20,300-30,000 human breast tumor cells in L-15 medium (200 μl) containing 2.5% fetal calf serum and 100 μg gentamycin per ml (complete medium) were incubated at 37° in air for 120 hours; after this incubation period 50 μl of serially diluted P16 and ANUP were added to each well. […] The solutions were diluted in complete medium containing 0.05% SDS to a concentration of 350 μg per ml.
Dilution plates were prepared as follows:
100 μl of complete medium were added to each well and 50 μl of diluted P16 and ANUP were added to each well in row A thus 1.3 dilution was accomplished; 50 μl were serially diluted in the 100 μl of medium in rows B through H. Thus the range of concentrations were from 6 μg to 2 mg when 50 μl each dilution series were added to the 200 μl of the complete medium containing the MDA cells. The plates were incubated for an additional 96-120 hours. The medium was poured off and after a 90-minute incubation with 50 μl neutral red dye (0.5 ml neutral red (0.25% ethanol (0.6 ml) diluted 5.5 saline-0.16 mm HCl) the cells were washed twice with PBS (phosphate buffer saline) at room temperature. The concentration of living cells (since only living cells absorb the dye) was determined after adding 100 μl lysing buffer (50% ethanol in 0.05 m NaH2 PO4) the concentration of neutral red released in each well was determined using a Dynetech plate reader set at […]. A unit of activity was defined as the concentration of ANUP and P16 for 50% killing.

## synthetic hexadeca peptide (16 L-amino acids), partial N-terminal sequence of ANUP: Pyroglu-Leu-Lys-Cys-Tyr-Thr-Cys-Lys-Glu-Pro-Met-Thr-Ser-Ala-Ala-Cys (SEQ ID NO: 1) ([pGlu]LKCYTCKEPMTSAAC; cysteine pairing not given here) [P16]
Tumor cells
  effect on tumor cells by electron microscopy: complete degradation of the cells
[1]; + 0.005% SDS
  Fraction of the Activity relative to ANUP: 0.04
[1]; + 0.02% SDS
  Fraction of the Activity relative to ANUP: 0.50
[1]; + 0.05% SDS
  Fraction of the Activity relative to ANUP: 0.50
[1]; absence of SDS
  antitumor activity in the absence of SDS: neither the peptide nor the protein showed any antitumor activity
[1]; in vitro
  activity compared to the protein (ANUP), molar basis: about 50%
[1]; medium containing SDS, 96-120 hours incubation, read-out: 50% end point (concentration for 50% killing)
  IC50: 22 nM
[1]; no SDS
  Fraction of the Activity relative to ANUP: ± no Activity
[1]; weight basis
  weight of peptide required relative to weight of protein (ANUP) for equal activity: one tenth
